Measured values: the supplement of paper PMC10920090

Experiments:
Conditions in all cases: 72 h
BT-474 [1] = assay: drug sensitivity score (DSS), cytotoxicity CellTox Green; higher = more cytotoxic; extreme values may be limits of the assay
Procedure: (§1)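 Targeted FIMM drug screen of 23 compounds at 5 concentrations over a 10,000-fold range in 384-well plates, 1250 cells/well, 72 h at 37 °C. Read-outs were CellTiter-Glo viability and CellTox Green cytotoxicity, normalised to DMSO and benzethonium chloride controls and summarised as drug sensitivity score (DSS). Cells stably transduced with shScramble or one of two shPPFIA1 constructs (shPPFIA1_1 TRCN0000002969, shPPFIA1_2 TRCN0000342514).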

UT-SCC-24A [2] = assay: as above
Procedure: as §1

MDA-MB-231 [3] = assay: as above
MDA-MB-231 [4] = assay: drug sensitivity score (DSS), cell viability CellTiter-Glo; higher = more sensitive; extreme values may be limits of the assay
BT-474 [5] = assay: as above
Procedure: as §1

UT-SCC-24A [6] = assay: as above
Procedure: as §1

Row | Compound | drug sensitivity score (BT-474 [1]; shRNA: shPPFIA1_1) [DSS] | drug sensitivity score (BT-474 [1]; shRNA: shPPFIA1_2) [DSS] | drug sensitivity score (BT-474 [1]; shRNA: shScramble) [DSS] | drug sensitivity score (UT-SCC-24A [2]; shRNA: shPPFIA1_1) [DSS] | drug sensitivity score (UT-SCC-24A [2]; shRNA: shPPFIA1_2) [DSS] | drug sensitivity score (UT-SCC-24A [2]; shRNA: shScramble) [DSS] | drug sensitivity score (MDA-MB-231 [3]; shRNA: shPPFIA1_1) [DSS] | drug sensitivity score (MDA-MB-231 [3]; shRNA: shScramble) [DSS] | drug sensitivity score (MDA-MB-231 [4]; shRNA: shPPFIA1_1) [DSS] | drug sensitivity score (MDA-MB-231 [4]; shRNA: shScramble) [DSS] | drug sensitivity score (BT-474 [5]; shRNA: shPPFIA1_1) [DSS] | drug sensitivity score (BT-474 [5]; shRNA: shPPFIA1_2) [DSS] | drug sensitivity score (BT-474 [5]; shRNA: shScramble) [DSS] | drug sensitivity score (UT-SCC-24A [6]; shRNA: shPPFIA1_1) [DSS] | drug sensitivity score (UT-SCC-24A [6]; shRNA: shPPFIA1_2) [DSS] | drug sensitivity score (UT-SCC-24A [6]; shRNA: shScramble) [DSS]
1 | CCOc1ccn(-c2ccc(F)cc2)c(=O)c1C(=O)Nc1ccc(Oc2ccnc(N)c2Cl)c(F)c1 | 0 | 0 | 0 | 0 | 0 | 0 | 0 | 0.9 | 0 | 21 | 0 | 0 | 0 | 0 | 0 | 0
2 | CO[C@H]1C[C@@H]2CC[C@@H](C)[C@@](O)(O2)C(=O)C(=O)N2CCCC[C@H]2C(=O)O[C@H]([C@H](C)C[C@@H]2CC[C@@H](OCCO)[C@H](OC)C2)CC(=O)[C@H](C)/C=C(\C)[C@@H](O)[C@@H](OC)C(=O)[C@H](C)C[C@H](C)/C=C/C=C/C=C/1C [Everolimus] | 0 | 0 | 0 | 0 | 0 | 0 | 0 | 0 | 0 | 6.1 | 5.2 | 3.6 | 5.2 | 1.3 | 2.5 | 2.9
3 | CC(=O)O[C@@]12CO[C@@H]1C[C@H](O)[C@@]1(C)C(=O)[C@H](O)C3=C(C)[C@@H](OC(=O)[C@H](O)[C@@H](NC(=O)OC(C)(C)C)c4ccccc4)C[C@@](O)([C@@H](OC(=O)c4ccccc4)[C@H]21)C3(C)C [Docetaxel] | 20.1 | 20.5 | 20.9 | 16.2 | 15.2 | 20.1 | 7.3 | 8.7 | 1.3 | 16.8 | 16.1 | 16.8 | 20.6 | 17.3 | 18.8 | 18.7
4 | Cn1c(=O)n(-c2ccc(C(C)(C)C#N)cc2)c2c3cc(-c4cnc5ccccc5c4)ccc3ncc21 [Dactolisib] | 0 | 0 | 0 | 1.3 | 0.5 | 2.3 | 0 | 0 | 0 | 4.2 | 7.4 | 7.4 | 11 | 16.2 | 17 | 18
5 | CC(=O)Nc1cccc(-n2c(=O)n(C3CC3)c(=O)c3c(Nc4ccc(I)cc4F)n(C)c(=O)c(C)c32)c1 [Trametinib] | 0 | 0 | 0 | 18.9 | 18.4 | 7.8 | 5.3 | 12.5 | 0.7 | 12.4 | 0 | 0 | 0.1 | 19.6 | 18.5 | 15.4
6 | CN[C@@H](C)C(=O)N[C@H](C(=O)N1CCC[C@H]1c1nc(C(=O)c2ccc(F)cc2)cs1)C1CCCCC1 [NVP-LCL161] | 2.4 | 3.3 | 1.3 | 10.2 | 12.8 | 8.1 |  |  |  |  | 1 | 1.4 | 0.7 | 4.5 | 5.7 | 4.2
7 | Nc1nc(Cl)nc2c1ncn2[C@H]1C[C@H](O)[C@@H](CO)O1 [Cladribine] |  |  |  |  |  |  | 0 | 0 | 0 | 3.3 |  |  |  |  |  | 
8 | Cc1cc(Nc2cc(N3CCN(C)CC3)nc(/C=C/c3ccccc3)n2)n[nH]1 [ENMD-2076] |  |  |  |  |  |  | 2 | 0.9 | 3.8 | 8.8 |  |  |  |  |  | 
9 | CN1CCC(COc2cnc(-c3cccc(Cn4nc(-c5cccc(C#N)c5)ccc4=O)c3)nc2)CC1 |  |  |  |  |  |  | 0 | 0 | 0 | 0 |  |  |  |  |  | 
10 | O[C@H]1CC[C@H](Nc2ncc3nc(Nc4c(F)cc(F)cc4F)n([C@H]4CCOC4)c3n2)CC1 [Tanzisertib] |  |  |  |  |  |  | 0 | 0 | 0 | 3.1 |  |  |  |  |  | 
11 | CCOc1cc2ncc(C#N)c(Nc3ccc(OCc4ccccn4)c(Cl)c3)c2cc1NC(=O)/C=C/CN(C)C [Neratinib] |  |  |  |  |  |  | 0.2 | 0 | 6.3 | 8.3 |  |  |  |  |  | 
12 | Cc1cc(Nc2cc(N3CCN(C)CC3)nc(Sc3ccc(NC(=O)C4CC4)cc3)n2)n[nH]1 [Tozasertib] |  |  |  |  |  |  | 1.6 | 0.3 | 0 | 3 |  |  |  |  |  | 
13 | COc1cc(Nc2c(C#N)cnc3cc(OCCCN4CCN(C)CC4)c(OC)cc23)c(Cl)cc1Cl [Bosutinib] |  |  |  |  |  |  | 6.2 | 6.3 | 6.3 | 9.3 |  |  |  |  |  | 
14 | CC1(C)CNc2cc(NC(=O)c3cccnc3NCc3ccncc3)ccc21 [Motesanib] |  |  |  |  |  |  | 0 | 0.3 | 0 | 0 |  |  |  |  |  | 
15 | CO[C@H](C(=O)[C@@H](O)[C@@H](C)O)[C@@H]1Cc2cc3cc(O[C@H]4C[C@@H](O[C@@H]5C[C@@H](O)[C@H](O)[C@@H](C)O5)[C@H](O)[C@@H](C)O4)c(C)c(O)c3c(O)c2C(=O)[C@H]1O[C@H]1C[C@@H](O[C@@H]2C[C@@H](O)[C@@H](O[C@@H]3C[C@](C)(O)[C@H](O)[C@@H](C)O3)[C@@H](C)O2)[C@H](O)[C@@H](C)O1 [Plicamycin] |  |  |  |  |  |  | 8.5 | 7.1 | 6.2 | 11.6 |  |  |  |  |  | 
